Results reported in US20210317090A1, “AMINO ACID DEPLETION AGENTS AS ANTIPROLIFERATIVE AGENTS” (University of Central Florida Research Foundation, Inc., priority 2018, published 2021).

What was measured:
L3.6pl cells [1] = experiment: Analytes in supernatant of L3.6pl cells (LCMS); format: cell-based, human; conditions: 72 h
Description: One way to affect both spermidine and spermine pools is to decrease methionine supply, which in turn would inhibit the formation of the decarboxylated S-adenosylmethionine needed to provide the aminopropyl fragment required for spermidine and spermine synthesis. Since methionine, leucine and phenylalanine all use the LAT1/SLC3A2 transporter to enter cells, it was hypothesized that 10 was inhibiting LAT-1 mediated amino acid import. To test this hypothesis, the development of various embodiments involved measuring the amino acid concentrations in the supernatants of cells incubated with compound 10 at 2 and 5 μM for 72 h.
(§1) This example illustrates aspects according to various embodiments pertaining to a 72 h experiment with Compound 10 in L3.6pl cells. Ten milliliters of a cell suspension containing L3.6pl human pancreatic cancer cells (50,000 cells/mL) and aminoguanidine ([…]) were placed in treated plastic Petri dishes (d=9 cm) and incubated overnight at 37° C. After 24 h, the cells were dosed with compound 10 at 2 μM, 5 μM, or 7 μM. (Note: Stock solutions of 10 at 2, 5, and 7 mM were dissolved in phosphate buffered saline (PBS) and were filtered through a 0.2 μm filter prior to use. The experiments were maintained with a total volume of 10.01 mL where 10 mL of the cell suspension was placed in a plastic dish and each compound or the equivalent PBS volume was added to make up the total volume 10.01 mL for each dish. For example, for the control experiment PBS (10 μL) was added to make up the total volume (10 mL+10 μL=10.01 mL). After 72 h incubation, the cells were collected first by pipetting off the supernatant containing floating dead cells from the culture dish as well as media and placing them into 15 mL tubes. The supernatant containing floating cells was centrifuged (4 min at 1,000 rpm). The cell-free supernatant (supernatant #1) was collected into a new 15 mL tube and quantified (˜8.6 mL) and was then stored frozen and was later quantified by LCMS to investigate the media composition of particular polyamine and amino acid analytes. The attached cells on the dish were washed with PBS (5 mL). The PBS wash was removed by suction and additional PBS (2 mL) was added and again suctioned off to provide twice-washed cells still adhered to the dish. Trypsin (2 mL) was then added to each dish and incubated (3-5 min) until all the cells were detached. Fresh media (8 mL) was added to quench the trypsin. The cell solutions were pipetted into separate 15 mL tubes and centrifuged (4 min at 1,000 rpm). The resulting supernatant was removed to provide a pellet. The pellet was suspended in PBS (10 mL) and was counted by a hemocytometer to provide cell counts for each experimental condition. The pellet was then centrifuged (4 min at 1,000 rpm) and the supernatant removed and the remaining pellet was quantified via protein and polyamine analysis.
This example illustrates aspects according to various embodiments pertaining to an LCMS Analysis. The respective supernatant (10 μL) was injected on a Thermo HPLC system equipped with PAL CTC plate sampler (96-well plate), Dionex Ultimate 3000 binary pump (flow rate at 0.25 mL/min), Dionex Ultimate 3000 thermostatted column compartment (temperature at 40° C.), Thermo Endura Mass Spectrometer (ESI source), using Thermo Scientific Accucore C18 (2.6 μm, 2.1×50 mm, 100 Å) column under a gradient of acetonitrile w/0.1% heptafluorobutyric acid (HFBA) in H2O w/0.1% HFBA from 2% at minute 0 to 60% at minute 5.0, to 99% at minute 6.5 held until minute 7.5 and then reduced back to 2% until minute 10 to re-equilibrate the column for the next injection. The peak area was measured and analyte amounts were calculated referring to analyte calibration curves. Analyte levels were adjusted with internal standard concentration for extraction efficiency. Peak height measurements were conducted referring to values obtained for standards of known concentrations. […]

L3.6pl cells [2] = experiment: Attached cell count (hemocytometer) after 72 h; format: cell-based, human
Description: In parallel with the above experiments, a dose dependence experiment was performed looking at how compound 10 at 0, 2, 5 and 7 μM affected L3.6pl cell attachment and cell number after 72 h incubation at 37° C. Successively more detached cells were observed as the concentration of compound 10 increased, particularly from 5 μM to 7 μM.
Cells were incubated with compound 10 for 72 h at 37° C. A 250 μM AG solution was incubated with the cells for 24 h prior to compound addition. Each condition was performed in duplicate.
as §1

SMILES: CC(C)CCN1CCN(C(CNCc2ccccc2)CC2CCCCC2)CC1CC(C)C.Cl.Cl.Cl (centres unmarked) [Compound 10, Benzyl-{3-cyclohexyl-2-[3-isobutyl-4-(3-methyl-butyl)-piperazin-1-yl]-propyl}-amine trihydrochloride salt]
- Supernatant level Acetyl spermidine (L3.6pl cells [1]; 2 μM): 1649 ± 18 pmoles/mg protein
- Supernatant level Acetyl spermine (L3.6pl cells [1]; 2 μM): 49 ± 10 pmoles/mg protein
- Supernatant level Agmatine (L3.6pl cells [1]; 2 μM): 297 ± 163 pmoles/mg protein
- Supernatant level Arginine (L3.6pl cells [1]; 2 μM): 18396 ± 70 pmoles/mg protein
- Supernatant level Glutamic acid (L3.6pl cells [1]; 2 μM): 20231 ± 649 pmoles/mg protein
- Supernatant level Leucine (L3.6pl cells [1]; 2 μM): 15055 ± 1043 pmoles/mg protein
- Supernatant level Methionine (L3.6pl cells [1]; 2 μM): 17686 ± 2432 pmoles/mg protein
- Supernatant level Ornithine (L3.6pl cells [1]; 2 μM): 9249 ± 306 pmoles/mg protein
- Supernatant level Phenylalanine (L3.6pl cells [1]; 2 μM): 11954 ± 828 pmoles/mg protein
- Supernatant level Putrescine (L3.6pl cells [1]; 2 μM): 938 ± 70 pmoles/mg protein
- Supernatant level Spermidine (L3.6pl cells [1]; 2 μM): 131 ± 26 pmoles/mg protein
- Supernatant level Spermine (L3.6pl cells [1]; 2 μM): 2532 ± 406 pmoles/mg protein
- Supernatant level Acetyl spermidine (L3.6pl cells [1]; 5 μM): 1706 ± 29 pmoles/mg protein
- Supernatant level Acetyl spermine (L3.6pl cells [1]; 5 μM): 36 ± 4 pmoles/mg protein
- Supernatant level Agmatine (L3.6pl cells [1]; 5 μM): 485 ± 176 pmoles/mg protein
- Supernatant level Arginine (L3.6pl cells [1]; 5 μM): 43243 ± 2047 pmoles/mg protein
- Supernatant level Glutamic acid (L3.6pl cells [1]; 5 μM): 34033 ± 540 pmoles/mg protein
- Supernatant level Leucine (L3.6pl cells [1]; 5 μM): 202092 ± 23817 pmoles/mg protein
- Supernatant level Methionine (L3.6pl cells [1]; 5 μM): 64036 ± 5454 pmoles/mg protein
- Supernatant level Ornithine (L3.6pl cells [1]; 5 μM): 15951 ± 118 pmoles/mg protein
- Supernatant level Phenylalanine (L3.6pl cells [1]; 5 μM): 160462 ± 18910 pmoles/mg protein
- Supernatant level Putrescine (L3.6pl cells [1]; 5 μM): 2224 ± 98 pmoles/mg protein
- Supernatant level Spermidine (L3.6pl cells [1]; 5 μM): 167 ± 32 pmoles/mg protein
- Supernatant level Spermine (L3.6pl cells [1]; 5 μM): 2690 ± 889 pmoles/mg protein
- Cell Count (L3.6pl cells [2]; 2 μM): 9.40 millions
- Cell Count (L3.6pl cells [2]; 5 μM): 4.35 millions
- loss of the attached cell population (L3.6pl cells [2]; 5 μM): 58%
- Cell Count (L3.6pl cells [2]; 7 μM): 2.10 millions
- loss of the attached cell population (L3.6pl cells [2]; 7 μM): 80%
